The target of the assay is SARS-CoV-2 RdRp (nsp12, nsp7, nsp8 polymerase complex) (Severe acute respiratory syndrome coronavirus 2, UniProt P0DTD1). The assay is described as follows: biochemical. It is filed as biochemical. Conditions: for BEI (binding efficiency index): calculated as pIC50 [mol/L]/MW [kDa] from SARS-CoV-2 RdRp IC50; for pIC50: recombinant RdRp: 1 μM nsp12, 3 μM nsp7, 3 μM nsp8, 0.5 μM template/primer RNA, 10 μM NTPs, 1 h at 30 °C, GraphPad fit.

The structures appear in SMILES notation. pIC50: −log10 of the molar value.

Consider `O=C(N[C@@H](Cc1ccc(O)cc1)C(=O)O)c1cc(-c2ccccc2)c(=O)n(-c2cc(OC3CCCCC3)ccc2O)c1O` [compound 16], for which the “BEI (binding efficiency index)” value is given as 6.7 and the pIC50 – broadly, −log10 of the IC50, conventionally taken in molar units – was 3.94. For `Cn1cc(C(=O)N[C@@H](Cc2ccc(O)cc2)C(=O)O)cc(-c2ccsc2)c1=O` [3c], in that order: 10.2 and 4.06.

Regarding `O=C(N[C@@H](Cc1ccc(O)cc1)C(=O)O)c1cc(-c2ccccc2)c(=O)n2c1sc1ccc(OC3CCCCC3)cc12` [compound 1, HeE1-2Tyr, reference compound], the “BEI (binding efficiency index)” value is recorded as 7.8. Consider `Cn1cc(C(=O)N[C@@H](Cc2ccc(O)cc2)C(=O)O)cc(-c2cccnc2)c1=O` [3b], for which the “BEI (binding efficiency index)” value was 9.4 and the pIC50 is 3.69. For `O=C(N[C@@H](Cc1ccc(O)cc1)C(=O)O)c1cc(-c2ccccc2)c(=O)n2ccsc12` [4a] the same measures were 9.3 and 4.06.

Regarding `Cn1cc(C(=O)N[C@@H](Cc2ccc(O)cc2)C(=O)O)cc(-c2ccccc2)c1=O` [3a], the “BEI (binding efficiency index)” value is given as 9.9. Regarding `O=C(N[C@@H](Cc1ccc(O)cc1)C(=O)O)c1cc(-c2ccccc2)c(=O)n2c1oc1ccc(OC3CCCCC3)cc12` [compound 2], the “inhibitory activity against SARS-CoV-2 RdRp (in words)” value (primer extension polymerase assay) was “devoid of any activity”. As to `Cc1nn2c(=O)c(-c3ccccc3)cc(C(=O)N[C@@H](Cc3ccc(O)cc3)C(=O)O)c2s1` [4b], the “BEI (binding efficiency index)” value is recorded as 8.8 and the pIC50 was 3.95.

Source of the values: publication PMC11092066, “Novel analogues of a nonnucleoside SARS-CoV-2 RdRp inhibitor as potential antivirotics” (Beilstein Journal of Organic Chemistry, 2024).
